Reference: PMC9743094, “Synthesis and Evaluation of Polymyxins Bearing Reductively Labile Disulfide-Linked Lipids” (Journal of Medicinal Chemistry, 2022)
Values after ≈ are worked out from the molar mass of the structure shown. Where two headings read alike, the source gives them in different places. Starred links: 1 amine or outer side, 2 acyl side, 3 side chain; linkers in the order of their positions; H or OH if unused. Positions of bridges follow the written chain, without caps; N, C: chain ends. Non-standard residues stand in square brackets, D forms with d. Residues, ends and D or L forms follow the SMILES beside them. *: point of attachment. X2 = CC(C)CCCCC[C@@H](N[*:1])C(=O)[*:2]; S(2-cyclohexylethyl) = C1CCC(CCS*)CC1; Dab = NCC[C@H](N)C(=O)O

Experiments:
[1] = test system: P. aeruginosa (ATCC 27853); assay type: cell-based; conditions: ATCC 27853
Protocol: (§1) Minimum inhibitory concentrations (MICs) on relevant Gram-negative bacteria were determined by broth microdilution, in accordance with CLSI guidelines. Indicated bacteria were taken from glycerol stocks and incubated overnight on blood agar at 37 °C. Well-isolated colonies were taken, suspended in TSB (5 mL), and grown to an OD600 of 0.5. Compounds to be tested were dissolved in DMSO (6.4 mg/mL), diluted in cation-adjusted Mueller–Hinton Broth (CAMHB) (12.5 and 20 μg/mL Mg^2+ and Ca^2+, respectively), and diluted serially on polypropylene microtiter plates. To the diluted compounds (50 μL per well) was added 50 μL of relevant bacterial suspension, to yield a final concentration of 10^6 CFU/mL. Plates were covered by adhesive gas-permeable membranes and incubated at 37 °C. MIC was read out as the lowest concentration that inhibited visual bacterial growth. Shown values are consistent results from at least duplicate experiments.

[2] = test system: K. pneumoniae (ATCC 13883); assay type: cell-based; conditions: ATCC 13883
Protocol: as §1

[3] = test system: A. baumannii (ATCC 19606); assay type: cell-based; conditions: ATCC 19606
Protocol: as §1

A. baumannii NRZ-00687 = assay type: cell-based; conditions: NRZ-00687
Protocol: as §1
(§2) Bacterial strains used for MIC assays and extended MIC assessment
(§3) Strains: The following strains were obtained from BEI Resources, NIAID, NIH: E. Coli M0072, strain
(§4) Table S2. […] Values are given in μg/mL.
(§5) Species Strain ID Resistance Polymyxin B 18b 23a 24a

A. baumanii (ATCC 17961) = assay type: cell-based; conditions: ATCC 17961, 2 h
Protocol: as §1
(§6) Table S3. MIC values [µg/mL] and relative toxicity values for disulfide containing polymyxin derivative 18b and
(§7) non-disulfide containing analogue 45. […]

P. aeruginosa (PAO1) = assay type: cell-based; conditions: PAO1, 2 h
Protocol: as §1, §6, §7

[4] = test system: differentiated conditionally immortalized PTECs (ciPTECs, OAT-1); experiment: ciPTEC toxicity assay (PrestoBlue); assay type: cell-based, human
Protocol: ciPTECs (OAT-1) cells,[52],[53] grown to 90–100% confluence, were washed by Hanks’ balanced salt solution (HBSS; Gibco, Life Technologies, Paisley, U.K.) and detached by accutase (4 mL) for 5 min at 37 °C. The cells were then suspended in fresh medium (DMEM/F-12, supplemented with 10% fetal calf serum, insulin (5 μg/mL), transferrin (5 μg/mL), selenium (5 μg/mL) hydrocortisone (35 ng/mL), Epidermal Growth Factor (10 ng/mL) and tri-iodothyronine (40 pg/mL)). Cell density was adjusted to 2.0 × 10^5 cells/mL, of which 100 μL was added to each well of a 96-well plate. The cells were incubated for 24 h at 33 °C, followed by 6 days at 37 °C, in a humidified atmosphere containing 5% (v/v) CO2. The medium was refreshed every second or third day.
Compounds were dissolved and serially diluted in serum-free medium. Differentiated cells were washed once with HBSS and serially diluted compounds (80 μL/well) were transferred to the ciPTEC-containing plate. Compounds were incubated for 24 h at 37 °C; the cells were washed by HBSS, followed by incubation with 10% PrestoBlue cell viability reagent (Thermo Scientific, Vienna, Austria) in HBSS at 37 °C in the dark. Fluorescence was recorded (excitation: 530 nm, emission: 590 nm). Raw data are corrected for PrestoBlue background fluorescence and reported relative to the no-treatment control (cells with medium only). Viability data were fitted with GraphPad Prism software (version 5.03; GraphPad Software, La Jolla, CA), by nonlinear regression with 0 as bottom constraint. Presented data are based on triplicates.
Toxicity assessment on PTECs
Table S1. TC50 values for polymyxin analogues. Toxicity assessment on proximal tubular epithelial cells
performed using PrestoBlue™ assay. TC50 values are derived after non-linear regression analysis on cell viability
correspond to data obtained from 2 different batches of cells/analyses on different days. As the value for
polymyxin B differs 2-fold, values in the manuscript are presented relative to the polymyxin B value.
Compound TC50 (µ M) Compound TC50 (µ M)
Polymyxin B 80 Polymyxin B 41
Figure S3. Representative traces of ciPTECs’ viability after incubation with analogues for 24 hours. Shown data are based on […]

E. coli (ATCC 25922) = assay type: cell-based; conditions: ATCC 25922
Protocol: as §1

A. baumannii BAA-747 = assay type: cell-based; conditions: BAA-747
Protocol: as §1, §2, §3, §4, §5

P. aeruginosa ATCC 10145 = assay type: cell-based; conditions: ATCC 10145
Protocol: as §1, §2, §3, §4, §5

K. pneumoniae ATCC 29665 = assay type: cell-based; conditions: ATCC 29665
Protocol: as §1, §2, §3, §4, §5

P. aeruginosa M120 = assay type: cell-based; conditions: M120
Protocol: as §1, §2, §3, §4, §5

K. pneumoniae RC0045 = assay type: cell-based; conditions: RC0045
Protocol: as §1, §2, §3, §4, §5

P. aeruginosa 2251 = assay type: cell-based; conditions: 2251
Protocol: as §1, §2, §3, §4, §5

P. aeruginosa 2018-007 = assay type: cell-based; conditions: 2018-007
Protocol: as §1, §2, §3, §4, §5

E. coli JS136 = assay type: cell-based; conditions: JS136
Protocol: as §1, §2, §3, §4, §5

K. pneumoniae KP1.53 = assay type: cell-based; conditions: KP1.53
Protocol: as §1, §2, §3, §4, §5

E. coli 1793 = assay type: cell-based; conditions: 1793
Protocol: as §1, §2, §3, §4, §5

E. coli M0072 = assay type: cell-based; conditions: M0072
Protocol: as §1, §2, §3, §4, §5

A. baumannii RUH-134 = assay type: cell-based; conditions: RUH-134
Protocol: as §1, §2, §3, §4, §5

Q: What does the source list for `CC(C)CCCCC[C@@H](N)C(=O)N[C@H](C(=O)N[C@@H](CCN)C(=O)N[C@H]1CCNC(=O)[C@H]([C@@H](C)O)NC(=O)[C@H](CCN)NC(=O)[C@H](CCN)NC(=O)[C@H](CC(C)C)NC(=O)[C@@H](Cc2ccccc2)NC(=O)[C@H](CCN)NC1=O)[C@@H](C)O` [Compound 45] (H-[X2]T[Dab][Dab][Dab][dF]L[Dab][Dab]T; lactam 4-C)?
A: MIC P. aeruginosa (ATCC 27853) [1]: 1 µg/mL (≈ 0.883 µM); MIC K. pneumoniae (ATCC 13883) [2]: ≤ 0.25 µg/mL; MIC A. baumannii (ATCC 19606) [3]: 0.25 µg/mL (≈ 0.221 µM); MIC A. baumannii NRZ-00687 (A. baumannii NRZ-00687): 0.5 µg/mL (≈ 0.442 µM); MIC A. baumanii (ATCC 17961) (A. baumanii (ATCC 17961)): 0.25 µg/mL (≈ 0.221 µM); MIC P. aeruginosa (PAO1) (P. aeruginosa (PAO1)): 1 µg/mL (≈ 0.883 µM); ciPTEC Toxicity Index (relative to polymyxin B) [4]: 2.0; TC50, Day 2 ([4]; 24 h): 82 µM

Q: With `CC(C)C[C@@H]1NC(=O)[C@@H](Cc2ccccc2)NC(=O)[C@H](CCN)NC(=O)[C@@H](NC(=O)[C@H](CCN)NC(=O)[C@@H](NC(=O)[C@H](CSSCCC2CCCCC2)NC(=O)CN)[C@@H](C)O)CCNC(=O)[C@H]([C@@H](C)O)NC(=O)[C@H](CCN)NC(=O)[C@H](CCN)NC1=O` [Compound 23a] (H-GC(S(2-cyclohexylethyl))T[Dab][Dab][Dab][dF]L[Dab][Dab]T; lactam 5-C) as the compound, how does the “MIC P. aeruginosa (ATCC 27853)” value [1] read?
A: 1 µg/mL (≈ 0.79 µM)

Q: And the “MIC K. pneumoniae (ATCC 13883)” value [2]?
A: 1 µg/mL (≈ 0.79 µM)

Q: And the “MIC A. baumannii (ATCC 19606)” value [3]?
A: 1 µg/mL (≈ 0.79 µM)

Q: What about the “MIC E. coli (ATCC 25922)” value (E. coli (ATCC 25922)) of the same compound?
A: 1 µg/mL (≈ 0.79 µM)

Q: And the “MIC A. baumannii BAA-747” value (A. baumannii BAA-747)?
A: 1 µg/mL (≈ 0.79 µM)

Q: And the “MIC P. aeruginosa ATCC 10145” value (P. aeruginosa ATCC 10145)?
A: 2 µg/mL (≈ 1.58 µM)

Q: What about the “MIC K. pneumoniae ATCC 29665” value (K. pneumoniae ATCC 29665) of the same compound?
A: 1 µg/mL (≈ 0.79 µM)

Q: What about the “MIC P. aeruginosa M120” value (P. aeruginosa M120) of the same compound?
A: 2 µg/mL (≈ 1.58 µM)

Q: And the “MIC K. pneumoniae RC0045” value (K. pneumoniae RC0045)?
A: 1 µg/mL (≈ 0.79 µM)

Q: And the “MIC P. aeruginosa 2251” value (P. aeruginosa 2251)?
A: 2 µg/mL (≈ 1.58 µM)

Q: And the “MIC P. aeruginosa 2018-007” value (P. aeruginosa 2018-007)?
A: 8 µg/mL (≈ 6.32 µM)

Q: What about the “MIC E. coli JS136” value (E. coli JS136) of the same compound?
A: 0.5 µg/mL (≈ 0.395 µM)

Q: What about the “MIC K. pneumoniae KP1.53” value (K. pneumoniae KP1.53) of the same compound?
A: 2 µg/mL (≈ 1.58 µM)

Q: What about the “MIC E. coli 1793” value (E. coli 1793) of the same compound?
A: 0.5 µg/mL (≈ 0.395 µM)

Q: What about the “MIC A. baumannii NRZ-00687” value (A. baumannii NRZ-00687) of the same compound?
A: 0.5 µg/mL (≈ 0.395 µM)

Q: And the “MIC E. coli M0072” value (E. coli M0072)?
A: 0.5 µg/mL (≈ 0.395 µM)

Q: And the “MIC A. baumannii RUH-134” value (A. baumannii RUH-134)?
A: 1 µg/mL (≈ 0.79 µM)

Q: And the “TC50, Day 2” value [4]?
A: 391 µM

Q: And the “ciPTEC Toxicity Index (relative to polymyxin B)” value [4]?
A: 9.5
